Experimental data: patent US6034066A, “Cysteine protease inhibitors for use in treatment of IGE mediated allergic diseases” (Peptide Therapeutics Limited, priority 1995, dated 2000)

Molecular target: T1, Der p I (Dermatophagoides pteronyssinus, UniProt P08176)
T1 construct: tissue SmithKline-Beecham (crude mite extract); host or cells: house dust mite extract, purified on immobilised anti-Der p I antibody 4C1
T1 sequence (P08176 99-320): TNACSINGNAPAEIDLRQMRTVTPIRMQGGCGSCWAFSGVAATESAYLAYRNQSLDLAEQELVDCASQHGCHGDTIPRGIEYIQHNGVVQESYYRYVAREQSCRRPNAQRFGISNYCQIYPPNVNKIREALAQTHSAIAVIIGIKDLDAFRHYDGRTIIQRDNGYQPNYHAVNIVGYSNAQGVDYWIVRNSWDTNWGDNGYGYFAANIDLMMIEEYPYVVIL
Assay: Cleavage of membrane CD23 on RPMI 8866 B cells by Der p I, FACS with FITC anti-CD23 (Bu38)
Type: cell-based
Conditions: Der p I pre-incubated 30 min at 37° C. with inhibitor, then added to RPMI 8866 cells; FIG. 1(c)
From the text: We have affinity purified Der p I from dust mite extract and tested its ability to proteolytically cleave CD23 expressed on cultured RPMI 8866 B cells, using FITC labelled monoclonal anti-human CD23 (Bu38). […] The proteolytic activity of Der p I was inhibited by E64 (a cysteine protease inhibitor), but not by alpha-1-antitrypsin (a serine protease inhibitor), thereby confirming the cysteine protease nature of Der p I (FIG. 1c). […] A more detailed description of FIG. 1 is as follows:
Cells were analysed on a FACScan (Becton Dickinson, Oxford, UK) with a linear fluorescence setting of 660 volts. The fluorescence (FL1) profile versus forward scatter (FSC) was used to monitor the cells, the amplification scale was altered according to the level of fluorescence. For each sample 4000 events were collected and then analysed using the flowMATE programme (DAKO, High Wycombe, UK). Data presented are representative of 3 replicate experiments, each point in a to c represents the mean of duplicate determinations, FIG. 1(a). Dose and cysteine dependency of CD23 cleavage by Der p I (for method of purification see FIG. 1(d) below). Der p I was pre-incubated (15 min at 37° C.) with or without 5 mM cysteine and added to 2-3×10^5 RPMI 8866 cells in a total volume of […] RPMI 1640+10 mM HEPES. […]

Molecule	inhibition of membrane CD23 cleavage by Der p I
CC(C)C[C@H](NC(=O)[C@H]1O[C@@H]1C(=O)O)C(=O)NCCCCN=C(N)N (relative stereo) [Compound E64, L-trans-epoxysuccinyl-leucylamido (4-guanidino) butane, reference compound]	completely inhibits
alpha-1-antitrypsin: a naturally occurring human serine protease inhibitor	no such inhibitory effect
